Results on eight compounds are retold here after patent US7442683B2, “Cyclic peptide” (Takara Bio Inc., priority 2001, dated 2008).

Read-outs that look alike come from different tables or passages of the source.

Common to all, as to assay type: cell-based
For assay [1], the system named is Aspergillus fumigatus TIMM1776. As to the method:
(§1) The antifungal activities of the compounds synthesized in Examples 1 and 3 to 7 were measured by a liquid medium dilution method. Candida albicans TIMM0136, Cryptococcus neoformans TIMM0354 or Aspergillus fumigatus TIMM1776 was inoculated into a medium containing one of the compounds diluted serially, and cultured at 30° C. for two days. […] For the measurements, a medium containing 0.67% Yeast Nitrogen Base (Difco) and 1.0% glucose (YNBG medium) was used for the cultures of Candida albicans and Cryptococcus neoformans, and a medium containing 0.5% Brain Heart Infusion Bouillon (Nissui) (BHI medium) was used for the culture of Aspergillus fumigatus.

The subject of assay [2] is Candida albicans TIMM0136. As to the method: as §1
Assay [3] relates to Cryptococcus neoformans TIMM0354. As to the method: as §1

On to `CCCCCCCCCCCCCC1CC(=O)N[C@@H](C)C(=O)N[C@@H](CCCN)C(=O)N[C@@H](CO)C(=O)N[C@@H](CO)C(=O)N[C@@H](CO)C(=O)N[C@H](CC(N)=O)C(=O)N[C@H]([C@@H](C)O)C(=O)NCC(=O)O1` (mixture of isomers) [Compound 7, cyclo(-L-Ala-L-Orn-L-Ser-L-Ser-L-Ser-D-Asn-D-allo-Thr-Gly-(±)-Hhd-)], for which the “MIC (μg/ml) A.f.” value in assay [1] (TIMM1776) was found to be 0.78 µg/mL. Besides, the “MIC (μg/ml) C.a.” value in assay [2] was determined as 6.25 µg/mL. For the same compound, the “MIC (μg/ml) C.n.” value in assay [3] stood at 3.12 µg/mL.

With `CCCCCCCCCCCCCC1CC(=O)N[C@@H](C)C(=O)N[C@@H](CCCN)C(=O)N[C@@H](CC(N)=O)C(=O)N[C@@H](CO)C(=O)N[C@@H](CO)C(=O)N[C@H](CC(N)=O)C(=O)N[C@H]([C@@H](C)O)C(=O)NCC(=O)O1` (mixture of isomers) [Compound 3, cyclo(-L-Ala-L-Orn-L-Asn-L-Ser-L-Ser-D-Asn-D-allo-Thr-Gly-(±)-Hhd-)], the “MIC (μg/ml) A.f.” value in assay [1] (TIMM1776) was determined as 1.56 µg/mL. Also, the “MIC (μg/ml) C.a.” value in assay [2] stood at 6.25 µg/mL. Besides, the “MIC (μg/ml) C.n.” value in assay [3] is 3.12 µg/mL.

As to `CCCCCCCCCCCCCC1CC(=O)N[C@@H](C)C(=O)N[C@@H](CCCN)C(=O)NCCC(=O)N[C@@H](CO)C(=O)N[C@@H](CO)C(=O)N[C@H](CC(N)=O)C(=O)N[C@@H]([C@@H](C)O)C(=O)NCC(=O)O1` (stereo partly drawn) [AA^7:L-Thr-substituted analog], the “MIC (μg/ml) A.f.” value in assay [1] (TIMM1776) was over 200 µg/mL. Further, the “MIC (μg/ml) C.a.” value in assay [2] was over 200 µg/mL. In addition, the “MIC (μg/ml) C.n.” value in assay [3] was over 200 µg/mL.

With `CCCCCCCCCCCCCC1CC(=O)N[C@@H](C)C(=O)N[C@@H](CCCN)C(=O)N[C@@H](CC(=O)O)C(=O)N[C@@H](CO)C(=O)N[C@@H](CO)C(=O)N[C@H](CC(N)=O)C(=O)N[C@H]([C@@H](C)O)C(=O)NCC(=O)O1` (mixture of isomers) [Compound 4, cyclo(-L-Ala-L-Orn-L-Asp-L-Ser-L-Ser-D-Asn-D-allo-Thr-Gly-(±)-Hhd-)], the “MIC (μg/ml) C.a.” value in assay [2] came to 6.25 µg/mL. Also, the “MIC (μg/ml) C.n.” value in assay [3] was 6.25 µg/mL.

Take `CCCCCCCCCCCCCC1CC(=O)N[C@@H](C)C(=O)N[C@@H](CCCN)C(=O)NCC(=O)N[C@@H](CO)C(=O)N[C@@H](CO)C(=O)N[C@H](CC(N)=O)C(=O)N[C@H]([C@@H](C)O)C(=O)NCC(=O)O1` (mixture of isomers) [Compound 6, cyclo(-L-Ala-L-Orn-Gly-L-Ser-L-Ser-D-Asn-D-allo-Thr-Gly-(±)-Hhd-)]: the “MIC (μg/ml) C.a.” value in assay [2] turned out to be 12.5 µg/mL. The “MIC (μg/ml) C.n.” value in assay [3] turned out to be 3.12 µg/mL.

In the case of `CCCCCCCCCCCCCC1CC(=O)N[C@@H](C)C(=O)N[C@@H](CCCN)C(=O)N[C@@H](CCC(=O)O)C(=O)N[C@@H](CO)C(=O)N[C@@H](CO)C(=O)N[C@H](CC(N)=O)C(=O)N[C@H]([C@@H](C)O)C(=O)NCC(=O)O1` (mixture of isomers) [Compound 5, cyclo(-L-Ala-L-Orn-L-Glu-L-Ser-L-Ser-D-Asn-D-allo-Thr-Gly-(±)-Hhd-)], in assay [1] (TIMM1776), the “MIC (μg/ml) A.f.” value amounted to 0.39 µg/mL. In addition, the “MIC (μg/ml) C.a.” value in assay [2] was 3.12 µg/mL. Moreover, the “MIC (μg/ml) C.n.” value in assay [3] was 6.25 µg/mL.

For the compound `CCCCCCCCCCCCCC1CC(=O)N[C@@H](C)C(=O)N[C@@H](CCCN)C(=O)NCCC(=O)N[C@@H](CO)C(=O)N[C@@H](CO)C(=O)N[C@H](CC(N)=O)C(=O)N[C@H]([C@H](C)O)C(=O)NCC(=O)O1` (stereo partly drawn) [AA^7:D-Thr-substituted analog], in assay [1] (TIMM1776), the “MIC (μg/ml) A.f.” value was over 200 µg/mL. In addition, the “MIC (μg/ml) C.a.” value in assay [2] was over 200 µg/mL. For the same compound, the “MIC (μg/ml) C.n.” value in assay [3] is over 200 µg/mL.

As to `CCCCCCCCCCCCCC1CC(=O)N[C@@H](C)C(=O)N[C@@H](CCCN)C(=O)NCCC(=O)N[C@@H](CO)C(=O)N[C@@H](CO)C(=O)N[C@H](CC(N)=O)C(=O)N[C@H]([C@@H](C)O)C(=O)NCC(=O)O1` (mixture of isomers) [Compound 1, cyclo(-L-Ala-L-Orn-β-Ala-L-Ser-L-Ser-D-Asn-D-allo-Thr-Gly-(±) -Hhd-)], the “MIC (μg/ml) A.f.” value in assay [1] (Aspergillus fumigatus TIMM1776, BHI medium, 30° C., two days, growth almost completely inhibited) is 1.56 µg/mL.
